From the supplement of paper PMC13380429
± gives the standard deviation of the averaged measurements.

Columns and labels:
Conditions in all cases: 72 h
Caco-2 [1] = assay: cell viability relative to DMSO; higher = less toxic
Calu-3 [2] = assay: as above
HepG2 [3] = assay: as above
Caco-2 [4] = assay: drug sensitivity score (DSS) for viability; higher = more toxic; extreme values may be limits of the assay
Calu-3 [5] = assay: as above
HepG2 [6] = assay: as above
Caco-2 [7] = assay: relative viability EC50 (midpoint between 100% and the lowest measured viability); higher = less toxic
Calu-3 [8] = assay: as above
HepG2 [9] = assay: as above
U2OS [10] = assay: cell viability relative to DMSO; higher = less toxic
U2OS [11] = assay: drug sensitivity score (DSS) for viability; higher = more toxic; extreme values may be limits of the assay
U2OS [12] = assay: relative viability EC50 (midpoint between 100% and the lowest measured viability); higher = less toxic
Vero E6 [13] = assay: cell viability relative to DMSO; higher = less toxic
Vero E6 [14] = assay: drug sensitivity score (DSS) for viability; higher = more toxic; extreme values may be limits of the assay

Row | SMILES | cell viability (Caco-2 [1]; 1 nM) | cell viability (Caco-2 [1]; 10 nM) | cell viability (Caco-2 [1]; 100 nM) | cell viability (Caco-2 [1]; 1000 nM) | cell viability (Caco-2 [1]; 10000 nM) | cell viability (Calu-3 [2]; 1 nM) | cell viability (Calu-3 [2]; 10 nM) | cell viability (Calu-3 [2]; 100 nM) | cell viability (Calu-3 [2]; 1000 nM) | cell viability (Calu-3 [2]; 10000 nM) | cell viability (HepG2 [3]; 1 nM) | cell viability (HepG2 [3]; 10 nM) | cell viability (HepG2 [3]; 100 nM) | cell viability (HepG2 [3]; 1000 nM) | cell viability (HepG2 [3]; 10000 nM) | drug sensitivity score (Caco-2 [4]) | drug sensitivity score (Calu-3 [5]) | drug sensitivity score (HepG2 [6]) | relative viability EC50 (Caco-2 [7]) | relative viability EC50 (Calu-3 [8]) | relative viability EC50 (HepG2 [9]) | cell viability (U2OS [10]; 1 nM) | cell viability (U2OS [10]; 10 nM) | cell viability (U2OS [10]; 100 nM) | cell viability (U2OS [10]; 1000 nM) | cell viability (U2OS [10]; 10000 nM) | drug sensitivity score (U2OS [11]) | relative viability EC50 (U2OS [12]) | cell viability (Vero E6 [13]; 1 nM) | cell viability (Vero E6 [13]; 10 nM) | cell viability (Vero E6 [13]; 100 nM) | cell viability (Vero E6 [13]; 1000 nM) | cell viability (Vero E6 [13]; 10000 nM) | drug sensitivity score (Vero E6 [14])
1 | NCc1ccc(S(N)(=O)=O)cc1 [mafenide] | 106% | 98.5% | 97.7% | 103% | 98.1% | 100% | 103% | 98.1% | 94.5% | 96.1% | 94.1% | 102% | 99.9% | 101% | 95.7% | 0 | 0 | 0 | > 10 µM | > 10 µM | > 10 µM | – | – | – | – | – | – | – | – | – | – | – | – | –
2 | O=C(Cc1ccccc1)Nc1nc2ccc(Cl)cc2c2nc(-c3ccco3)nn12 [MRS-1220] | 93.7% | 100% | 99.4% | 94.1% | 101% | 104% | 98.2% | 95.3% | 94.1% | 93.5% | 96.5% | 93% | 93.5% | 95.6% | 105% | 0 | 0 | 0 | > 10 µM | > 10 µM | > 10 µM | 98.8% | 101% | 97.2% | 104% | 96.9% | 0 | > 10 µM | – | – | – | – | – | –
3 | COc1cc(N2CCC(O)CC2)ccc1Nc1cc(Nc2ccccc2S(=O)(=O)C(C)C)c2cc[nH]c2n1 [Mps1-IN-1] | 102% | 92.2% | 97.4% | 101% | 53.9% | 101% | 114% | 90.9% | 102% | 85.6% | 96.5% | 118% | 95.2% | 95.5% | 37.8% | 2.3 | 0.1 | 4.1 | – | > 10 µM | 2.57 µM | 103% | 101% | 101% | 98.3% | 70.2% | 1.5 | – | 106% | 103% | 102% | 98.9% | 74% | 1.2
4 | Cc1c(N)nc([C@H](CC(N)=O)NC[C@H](N)C(N)=O)nc1C(=O)N[C@H](C(=O)N[C@H](C)[C@@H](O)[C@H](C)C(=O)N[C@H](C(=O)NCCc1nc(-c2nc(C(=O)NCCC[S+](C)C)cs2)cs1)[C@@H](C)O)[C@@H](OC1OC(CO)C(O)C(O)C1OC1OC(CO)C(O)C(OC(N)=O)C1O)c1cnc[nH]1 (stereo partly specified) [bleomycin] | 98.9% | 93.8% | 92.3% | 89.5% | 76.8% | 102% | 91.8% | 94.7% | 66.2% | 49.8% | 93.4% | 93.7% | 95.8% | 66.2% | 50.8% | 1.7 | 6.9 | 6.8 | > 10 µM | 0.536 µM | – | 97% | 101% | 93.5% | 88.4% | 55.6% | 3.8 | – | 97.4% | 103% | 97.5% | 75.5% | 60% | 4.8
5 | O=C(Nc1ccccc1)N1CCC(Cc2cnc3ccccc3c2)CC1 [PF-750] | 106% | 99.4% | 94.5% | 102% | 88.3% | 89.9% | 88.1% | 114% | 95.7% | 95.9% | 96.6% | 108% | 103% | 98.1% | 93% | 0 | 0 | 0 | > 10 µM | > 10 µM | > 10 µM | 97.2% | 92% | 96.8% | 96.5% | 97.9% | 0 | > 10 µM | – | – | – | – | – | –
6 | NS(=O)(=O)Nc1ncnc(OCCOc2ncc(Br)cn2)c1-c1ccc(Br)cc1 | 106% | 94.3% | 102% | 93.8% | 97% | 88.4% | 99.1% | 95.6% | 104% | 94.7% | 102% | 104% | 98.9% | 92.9% | 90.9% | 0 | 0 | 0 | > 10 µM | > 10 µM | > 10 µM | 97.8% | 94.5% | 96.9% | 102% | 105% | 0 | > 10 µM | – | – | – | – | – | –
7 | Cc1cc([C@@H](C)Nc2ccccc2C(=O)O)c2nc(N3CCOCC3)cc(=O)n2c1 [AZD6482] | 93.5% | 102% | 90% | 83.6% | 57.5% | 97.7% | 105% | 94.2% | 100% | 69% | 103% | 102% | 99.9% | 85.5% | 79.7% | 3.9 | 1.3 | 2 | – | – | > 10 µM | 100% | 101% | 96.1% | 99.8% | 80.8% | 0.6 | > 10 µM | 108% | 96.5% | 89.3% | 79.8% | 67.6% | 4.1
8 | Cc1cc(Nc2cc(CN3CCOCC3)c3nc(C)c(Cc4ccc(Cl)cc4F)n3n2)n[nH]1 | 102% | 98.2% | 105% | 96.7% | 62.8% | 107% | 99.7% | 97.1% | 91% | 50.6% | 101% | 105% | 97.5% | 75.5% | 32.7% | 2.3 | 4.1 | 6.9 | – | – | 1.29 µM | 104% | 105% | 104% | 99.4% | 29.6% | 4 | 3.11 µM | 96.4% | 98% | 96.8% | 95.8% | 70.7% | 1.9
9 | CCOC(=O)[C@H](Cc1ccc([N+](=O)[O-])cc1)NC(=O)c1ccccc1 | 104% | 97.9% | 102% | 96.7% | 90.7% | 92.9% | 103% | 96.8% | 102% | 106% | 99.4% | 93.2% | 107% | 101% | 95.2% | 0 | 0 | 0 | > 10 µM | > 10 µM | > 10 µM | 101% | 98.3% | 98.5% | 101% | 102% | 0 | > 10 µM | – | – | – | – | – | –
10 | Cc1cc2c(cc1CC(=O)c1sccc1S(=O)(=O)Nc1onc(C)c1Cl)OCO2 [sitaxentan] | 114% | 98% | 102% | 100% | 108% | – | – | – | – | – | – | – | – | – | – | 0 | – | – | > 10 µM | – | – | 99.6% | 99.6% | 98.9% | 101% | 101% | 0 | > 10 µM | – | – | – | – | – | –
11 | CC(=O)C1=C(O)[C@@H]2[C@H]3c4c[nH]c5cccc(c45)C[C@H]3C(C)(C)N2C1=O [cyclopiazonic-acid] | 99.9% | 106% | 107% | 106% | 81.9% | 105% | 98.1% | 102% | 95.7% | 98.8% | 110% | 105% | 103% | 97.2% | 64.3% | 0.3 | 0 | 2.1 | > 10 µM | > 10 µM | – | 102% | 100% | 100% | 96.2% | 86.1% | 0.4 | > 10 µM | 100% | 96.5% | 94.3% | 95.3% | 65.6% | 2.4
12 | CCOP(=S)(OCC)Oc1ccc2c(C)c(Cl)c(=O)oc2c1 [coumophos] | – | – | – | – | – | – | – | – | – | – | – | – | – | – | – | – | 0 | 0 | – | – | – | – | – | – | – | – | 0 | – | – | – | – | – | – | 0
13 | O=S(=O)(c1cccc2cnccc12)N1CCNCC1 [C-1] | 96.8% | 94.8% | 105% | 99.4% | 104% | 98.2% | 91.8% | 96.3% | 99.5% | 123% | 93.2% | 105% | 95% | 110% | 104% | 0 | 0 | 0 | > 10 µM | > 10 µM | > 10 µM | – | – | – | – | – | – | – | – | – | – | – | – | –
14 | C[C@@H](NC(=O)CCc1nc2ccccc2c(=O)[nH]1)c1ccccc1 [ME0328] | 97.8 ± 16% | 94 ± 1.2% | 98.8 ± 2% | 103 ± 4.3% | 93.7 ± 9.1% | 100 ± 5.4% | 112 ± 15% | 92 ± 3.1% | 99.7 ± 8.7% | 98.3 ± 3.2% | 98.65 ± 0.78% | 98.8 ± 4.7% | 100 ± 4.5% | 104 ± 1.3% | – | 0 | 0 | 0 | – | – | – | 102 ± 1.1% | 98 ± 1.3% | 103 ± 1.6% | 95.8 ± 0.14% | 95.8 ± 6.4% | 0 | – | 93.6 ± 7.1% | – | 93.8 ± 6% | 94.2 ± 6.1% | 94.05 ± 0.071% | 0
